In patent US7220824B1, “Integrin-mediated drug targeting” (Bayer Aktiengesellschaft, priority 2000, dated 2007):
pIC50: −log10 of the molar value. Like-named read-outs stand apart in the source and are kept apart here.

What was measured:
[1] = test system: hemopoietic stem cells (bone marrow cells); experiment: CSF-induced proliferation of hemopoietic stem cells; type: cell-based, mice; conditions: Bone marrow cell, 168 h
Description: Bone marrow cells are flushed out of the femur of mice. 10^5 cells are incubated in McCoy 5A medium (0.3% agar) together with recombinant murine GM-CSF (Genzyme; parent cell colony formation) and the substances (10^−4 to 100 μg/ml) at 37° C. and 7% CO2. 7 days later, the colonies (<50 cells) and clusters (17–50 cells) are counted.

[2] = biological target: T1, αvβ3 receptor (αvβ3 from human A375 cells) (Homo sapiens, UniProt P05106+P06756); experiment: αvβ3 binding test (echistatin displacement, WGA SPA beads)
T1 construct: αvβ3 from human A375 cells was purified analogously to a procedure which was described by Wong et al; endogenous in cells; host or cells: human A375 cells; the receptor was purified from the cells and used detergent-solubilised (n-octyl-glucopyranoside)
Description: αvβ3 from human A375 cells was purified analogously to a procedure which was described by Wong et al. (Molecular Pharmacology, 50, 529–537 (1996)). In each case, 10 μl of αvβ3 (5 ng) in TBS pH 7.6, 2 mM CaCl2, 1 mM MgCl2, 1% n-octyl-glucopyranoside (Sigma); 10 μl of test substance in TBS pH 7.6, 0.1% DMSO and 45 μl of TBS pH 7.6, 2 mM CaCl2, 1 mM MgCl2, 1 mM MnCl2 were incubated at room temperature for 1 h. In each case, 25 μl of WGA SPA beads (Amersham, 4 mg/ml) and 10 μl of echistatin ([…], Amersham, chloramine-T labelled) were then added. After 16 hours at room temperature, the samples were measured in a scintillation measuring apparatus (Wallac 1450).

B16F10 = experiment: Growth inhibition test (MTT), cytotoxic action on tumour cell lines; type: cell-based; conditions: Mus musculus, B16-F10, 144 h, read-out: IC50 values of the cytotoxic action on tumour cell lines, B16F10
Description: (§1) The human large intestine cell lines SW 480 and HT29 (ATCC No. CCL 228 and HTB38), the human breast cell lines MDA-MB 231, MCF-7 and BT20 (ATCC No. HTB-, 26, 22 and 23) and the mouse melanoma cell line B16F 10 (CRL 6475) were grown to confluence in Roux dishes in RPMI 1640 medium with addition of 10% FCS. They were then trypsinized and taken up in RPMI plus 10% FCS to a cell count of 50,000 cells or, for B16F10, 20,000 cells per ml. 100 μl of cell suspension/well were added to a 96 microwell plate and incubated at 37° C. for 1 day in a CO2 incubator. A further 100 μl of RPMI medium and 1 μl of DMSO were then added with the test substances. The growth was checked after day 6. For this, 25 μl of MTT solution (3-(4,5-dimethylthiazol-2-yl)-2,5-diphenyltetrazolium bromide) was added to each well at a starting concentration of 5 mg/ml of H2O. The plate was incubated at 37° C. for 5 hours in a CO2 incubator. The medium was then aspirated and 100 μl of i-propanol/well were added. After shaking with 100 μl of H2O for 30 min, the extinction was measured at 595-nm using a Multiplate Reader (BIO-RAD 3550-UV).
(§2) The cytostatic action is indicated in Table 2 as an IC50 value, in each case for the individual cell lines.

BT20 = experiment: as above; type: cell-based; conditions: Homo sapiens, BT-20, 144 h, read-out: IC50 values of the cytotoxic action on tumour cell lines, BT20
Description: as §1, §2

HT 29 = experiment: as above; type: cell-based; conditions: Homo sapiens, HT-29, 144 h, read-out: IC50 values of the cytotoxic action on tumour cell lines, HT 29
Description: as §1, §2

MCF7 = experiment: as above; type: cell-based; conditions: Homo sapiens, MCF7, 144 h, read-out: IC50 values of the cytotoxic action on tumour cell lines, MCF7
Description: as §1, §2

MDA-MB 231 = experiment: as above; type: cell-based; conditions: Homo sapiens, MDA-MB-231, 144 h, read-out: IC50 values of the cytotoxic action on tumour cell lines, MDA-MB 231
Description: as §1, §2

SW480 = experiment: as above; type: cell-based; conditions: Homo sapiens, SW480, 144 h, read-out: IC50 values of the cytotoxic action on tumour cell lines, SW480
Description: as §1, §2

[3] = αvβ3 purified from human A375 cells, labelled echistatin, read-out: IC50 values of the binding to the αvβ3 receptor
[4] = Mus musculus, read-out: IC50, CSF-induced proliferation of hemopoietic stem cells, mouse bone marrow cells, recombinant murine GM-CSF, 7 days, colony count

T1 sequence (P06756 31-889 limits assumed): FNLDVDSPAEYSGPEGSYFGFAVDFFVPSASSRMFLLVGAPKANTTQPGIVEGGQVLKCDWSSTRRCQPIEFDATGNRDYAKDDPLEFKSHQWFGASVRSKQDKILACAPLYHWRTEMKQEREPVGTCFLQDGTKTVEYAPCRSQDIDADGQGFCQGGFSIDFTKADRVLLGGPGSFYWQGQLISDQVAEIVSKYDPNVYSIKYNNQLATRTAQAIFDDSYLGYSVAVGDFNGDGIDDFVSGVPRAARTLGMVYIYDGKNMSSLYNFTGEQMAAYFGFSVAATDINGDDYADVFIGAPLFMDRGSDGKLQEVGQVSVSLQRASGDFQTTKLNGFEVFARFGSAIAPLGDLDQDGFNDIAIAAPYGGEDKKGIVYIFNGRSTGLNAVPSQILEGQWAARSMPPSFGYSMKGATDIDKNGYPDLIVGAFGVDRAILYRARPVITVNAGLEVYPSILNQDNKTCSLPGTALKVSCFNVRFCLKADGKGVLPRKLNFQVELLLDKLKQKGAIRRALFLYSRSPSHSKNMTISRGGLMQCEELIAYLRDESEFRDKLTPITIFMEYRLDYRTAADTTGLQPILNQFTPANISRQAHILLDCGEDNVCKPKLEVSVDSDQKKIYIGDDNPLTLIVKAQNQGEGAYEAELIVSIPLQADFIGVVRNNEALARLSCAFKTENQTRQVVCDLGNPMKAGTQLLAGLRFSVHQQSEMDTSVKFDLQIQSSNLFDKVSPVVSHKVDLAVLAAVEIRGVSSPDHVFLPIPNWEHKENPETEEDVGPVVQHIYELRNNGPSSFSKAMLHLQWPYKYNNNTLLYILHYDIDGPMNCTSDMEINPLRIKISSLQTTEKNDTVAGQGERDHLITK
T1 sequence (P06756 891-1048 partner limits assumed): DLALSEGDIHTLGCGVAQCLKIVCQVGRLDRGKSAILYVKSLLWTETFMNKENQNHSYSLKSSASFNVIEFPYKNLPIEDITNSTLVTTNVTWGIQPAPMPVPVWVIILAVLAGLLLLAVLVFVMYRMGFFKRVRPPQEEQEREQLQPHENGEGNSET
T1 sequence (P05106 27-788): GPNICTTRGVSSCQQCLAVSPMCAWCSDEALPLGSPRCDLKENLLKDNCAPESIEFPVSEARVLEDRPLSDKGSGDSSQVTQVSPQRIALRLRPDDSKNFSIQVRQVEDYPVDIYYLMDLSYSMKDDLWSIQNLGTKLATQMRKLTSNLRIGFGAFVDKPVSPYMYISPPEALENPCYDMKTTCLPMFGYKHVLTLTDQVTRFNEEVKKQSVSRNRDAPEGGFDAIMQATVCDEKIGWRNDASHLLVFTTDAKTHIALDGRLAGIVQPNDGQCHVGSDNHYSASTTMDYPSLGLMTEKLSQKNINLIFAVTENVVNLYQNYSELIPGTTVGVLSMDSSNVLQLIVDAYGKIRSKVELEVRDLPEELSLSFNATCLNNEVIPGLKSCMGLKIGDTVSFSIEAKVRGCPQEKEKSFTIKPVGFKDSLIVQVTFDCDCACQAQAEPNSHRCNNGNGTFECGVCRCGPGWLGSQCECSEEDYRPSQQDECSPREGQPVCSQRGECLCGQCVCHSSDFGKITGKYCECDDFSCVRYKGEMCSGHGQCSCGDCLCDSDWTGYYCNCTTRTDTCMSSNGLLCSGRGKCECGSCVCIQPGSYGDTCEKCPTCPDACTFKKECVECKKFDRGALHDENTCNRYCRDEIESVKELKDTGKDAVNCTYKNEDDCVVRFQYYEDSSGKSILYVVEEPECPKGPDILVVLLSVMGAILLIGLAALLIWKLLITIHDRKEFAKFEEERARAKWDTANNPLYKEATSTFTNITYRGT

| Compound | IC50 ([1]; mouse bone marrow cells, recombinant murine GM-CSF, 7 days, colony count, read-out: IC50, CSF-induced proliferation of hemopoietic stem cells) [µg/mL] | pIC50 [2] | pIC50 (B16F10) | pIC50 (BT20) | pIC50 (HT 29) | pIC50 (MCF7) | pIC50 (MDA-MB 231) | pIC50 (SW480) | pIC50 [2, 3] | IC50 [1, 4] [µg/mL] |
| --- | --- | --- | --- | --- | --- | --- | --- | --- | --- | --- |
| CC[C@@]1(O)C(=O)OCc2c1cc1n(c2=O)Cc2cc3ccccc3nc2-1 [Camptothecin, 20(S)-Camptothecin, reference compound] | 0.0003 |  |  |  |  |  |  |  |  |  |
| CC[C@@]1(OC(=O)[C@@H](NC(=O)[C@H](Cc2c[nH]cn2)NC(=S)Nc2cccc(S(=O)(=O)NC(CC(=O)O)c3cccc(NS(=O)(=O)c4cccc(NC(=N)N)c4)c3)c2)C(C)C)C(=O)OCc2c1cc1n(c2=O)Cc2cc3ccccc3nc2-1 (stereo partly drawn) [Example 3.1] |  | 6.83 | 6.00 | 6.00 | 6.40 | 6.10 | 6.30 | 6.00 |  |  |
| CC[C@@]1(OC(=O)[C@@H](NC(=O)[C@H](Cc2c[nH]cn2)NC(=S)Nc2ccc(S(=O)(=O)NC(CC(=O)O)c3cccc(NS(=O)(=O)c4cccc(NC(=N)N)c4)c3)cc2)C(C)C)C(=O)OCc2c1cc1n(c2=O)Cc2cc3ccccc3nc2-1 (stereo partly drawn) [Example 3.2] |  | 7.35 | 6.00 | 6.70 | 6.70 | 6.70 | 6.70 | 6.40 |  |  |
| CC[C@@]1(OC(=O)[C@@H](NC(=O)[C@H](CCCCN)NC(=S)Nc2ccc(S(=O)(=O)NC(CC(=O)O)c3cccc(NS(=O)(=O)c4cccc(NC(=N)N)c4)c3)cc2)C(C)C)C(=O)OCc2c1cc1n(c2=O)Cc2cc3ccccc3nc2-1 (stereo partly drawn) [Example 3.4] |  |  | 6.30 | 6.15 | 6.70 | 6.15 | 6.52 | 6.70 | 7.19 |  |
| CC[C@@]1(OC(=O)[C@@H](NC(=O)[C@H](Cc2cnc[nH]2)NC(=S)Nc2cccc(C(CC(=O)O)NS(=O)(=O)c3cccc(-c4cccc(NC(=O)Nc5nc6ccccc6[nH]5)c4)c3)c2)C(C)C)C(=O)OCc2c1cc1n(c2=O)Cc2cc3ccccc3nc2-1 (stereo partly drawn) [Example 3.6] |  | 7.66 | 5.70 | 6.00 | 6.52 | 6.40 | 6.40 | 6.40 |  |  |
| CC[C@@]1(OC(=O)[C@@H](NC(=O)[C@H](Cc2cnc[nH]2)NC(=S)Nc2ccc(CC(NS(=O)(=O)c3cc(-c4cccc(NC(=O)Nc5nc6ccccc6[nH]5)c4)ccc3OC)C(=O)O)cc2)C(C)C)C(=O)OCc2c1cc1n(c2=O)Cc2cc3ccccc3nc2-1 (stereo partly drawn) [Example 3.7] |  | 6.95 | 6.10 | 6.22 | 6.70 | 6.40 | 6.52 | 6.40 |  |  |
| CC[C@@]1(OC(=O)[C@@H](NC(=O)[C@H](Cc2cnc[nH]2)NC(=S)Nc2ccc(CC(NS(=O)(=O)c3cccc(-c4cccc(NC(=O)Nc5nc6ccccc6[nH]5)c4)c3)C(=O)O)cc2)C(C)C)C(=O)OCc2c1cc1n(c2=O)Cc2cc3ccccc3nc2-1 (stereo partly drawn) [Example 3.9] |  | 6.66 | 6.00 | 6.30 | 7.22 | 6.82 | 7.22 | 6.40 |  |  |
| CCCNC(=O)Nc1cccc(-c2ccc(CC(NS(=O)(=O)c3cccc(NC(=S)N[C@@H](Cc4c[nH]cn4)C(=O)N[C@H](C(=O)O[C@]4(CC)C(=O)OCc5c4cc4n(c5=O)Cc5cc6ccccc6nc5-4)C(C)C)c3)C(=O)O)cc2)c1 (stereo partly drawn) [Example 3.10] |  |  | 6.10 | 6.40 | 6.46 | 6.70 | 6.70 | 6.52 | 6.81 |  |
| CC[C@@]1(OC(=O)[C@@H](NC(=O)C(Cc2c[nH]cn2)NC(=S)Nc2ccc(CC(NS(=O)(=O)c3ccc(-c4cccc(NC(=O)Nc5nc6ccccc6[nH]5)c4)cc3)C(=O)O)cc2)C(C)C)C(=O)OCc2c1cc1n(c2=O)Cc2cc3ccccc3nc2-1 (stereo partly drawn) [Example 3.11] |  | 7.01 | 6.22 | 6.30 | 6.52 | 6.60 | 6.40 | 6.22 |  |  |
| CCCNC(=O)Nc1cccc(S(=O)(=O)Nc2cccc(C(CC(=O)O)NS(=O)(=O)c3ccc(NC(=S)N[C@@H](Cc4c[nH]cn4)C(=O)N[C@H](C(=O)O[C@]4(CC)C(=O)OCc5c4cc4n(c5=O)Cc5cc6ccccc6nc5-4)C(C)C)cc3)c2)c1 (stereo partly drawn) [Example 3.12] |  | 6.41 | 6.60 | 6.82 | 6.82 | 7.00 | 6.82 | 6.52 |  |  |
| CCCNC(=O)Nc1cccc(-c2ccc(CC(NC(=O)N[C@H](C(=O)O[C@]3(CC)C(=O)OCc4c3cc3n(c4=O)Cc4cc5ccccc5nc4-3)C(C)C)C(=O)O)cc2)c1 (stereo partly drawn) [Example 3.14] |  |  | 6.70 | 7.00 | 7.00 | 7.10 | 6.82 | 6.82 | 7.68 |  |
| CCCNC(=O)Nc1cccc(-c2ccc(CC(NC(=S)Nc3cccc4nc5c(cc34)Cn3c-5cc4c(c3=O)COC(=O)[C@]4(O)CC)C(=O)O)cc2)c1 (stereo partly drawn) [Example 3.15] |  |  | 5.22 | 5.70 | 6.70 | 6.52 | 6.70 | 6.70 | 7.21 |  |
| CCCNC(=O)Nc1cccc(S(=O)(=O)Nc2cccc(C(CC(=O)O)NC(=S)Nc3cccc4nc5c(cc34)Cn3c-5cc4c(c3=O)COC(=O)[C@]4(O)CC)c2)c1 (stereo partly drawn) [Example 3.16] |  |  | 6.00 | 6.15 | 7.00 | 6.52 | 6.00 | 6.30 | 7.29 |  |
| CC[C@@]1(OC(=O)CCC(=O)NC(CC(=O)O)c2cccc(NS(=O)(=O)c3cccc(NC(=N)N)c3)c2)C(=O)OCc2c1cc1n(c2=O)Cc2cc3ccccc3nc2-1 (stereo partly drawn) [Example 3.18] |  | 7.10 | 6.00 | 6.05 | 6.74 | 6.22 | 6.30 | 6.52 |  |  |
| CC[C@@]1(OC(=O)[C@@H](NC(=O)CNC(=O)CCCC(=O)NC(CC(=O)O)c2cccc(NS(=O)(=O)c3cccc(NC(=N)N)c3)c2)C(C)C)C(=O)OCc2c1cc1n(c2=O)Cc2cc3ccccc3nc2-1 (stereo partly drawn) [Example 3.19] |  |  | 5.22 | 5.40 | 6.30 | 5.30 | 5.70 | 5.82 | 7.32 |  |
| CCCNC(=O)Nc1cccc(S(=O)(=O)Nc2cccc(C(CC(=O)O)NC(=O)CCCC(=O)NCC(=O)N[C@@H](CC(C)C)C(=O)O[C@]3(CC)C(=O)OCc4c3cc3n(c4=O)Cc4cc5ccccc5nc4-3)c2)c1 (stereo partly drawn) [Example 3.20] |  |  |  |  |  |  |  |  | 6.58 | 0.1 |
| CCCNC(=O)Nc1cccc(S(=O)(=O)Nc2cccc(C(CC(=O)O)NC(=O)CCCC(=O)N[C@@H](CC(C)C)C(=O)NCC(=O)N[C@@H](CC(C)C)C(=O)O[C@]3(CC)C(=O)OCc4c3cc3n(c4=O)Cc4cc5ccccc5nc4-3)c2)c1 (stereo partly drawn) [Example 3.21] |  |  |  |  |  |  |  |  | 6.26 | 0.08 |
| CCCNC(=O)Nc1cccc(S(=O)(=O)Nc2cccc(C(CC(=O)O)NC(=O)CCCC(=O)NCC(=O)N[C@@H](CC(C)C)C(=O)N[C@H](C(=O)O[C@]3(CC)C(=O)OCc4c3cc3n(c4=O)Cc4cc5ccccc5nc4-3)C(C)C)c2)c1 (stereo partly drawn) [Example 3.22] |  |  |  |  |  |  |  |  | 6.27 | 0.006 |
